Experiment [1] concerns Ten CoV 3CL^pro's (FIPV-, PEDV-, NL63-, HKU1-, OC43-, SARS-, HKU4-, HKU5-, HKU9-, IBV-3CL^pro). It is filed as biochemical, coronaviruses (α-, β-, γ-CoV).
In experiment [2] the target is NL63-3CL^pro (Human coronavirus NL63 (HCoV-NL63), UniProt P0C6X5). The experiment can be described thus: biochemical.
Experiment [3] deals with HKU5-3CL^pro (Bat coronavirus HKU5 (BtCoV) (BtCoV/HKU5/2004), UniProt P0C6W4). It is filed as biochemical.
The target in experiment [4] is HKU4-3CL^pro (Bat coronavirus HKU4 (BtCoV) (BtCoV/HKU4/2004), UniProt P0C6W3). Format: biochemical.
Experiment [5] has as its target PEDV-3CL^pro (Porcine epidemic diarrhea virus (strain CV777) (PEDV), UniProt P0C6Y4). The experiment can be described thus: biochemical. The following applies: for inhibition at 100 µM: read-out: inhibition of PEDV-3CL^pro.
The target of experiment [6] is IBV-3CL^pro (Avian infectious bronchitis virus (strain Beaudette) (IBV), UniProt P0C6Y1). Format: biochemical.
The target in experiment [7] is OC43-3CL^pro (Human coronavirus OC43 (HCoV-OC43), UniProt P0C6X6). Format: biochemical.
Experiment [8] concerns the target FIPV-3CL^pro (Feline coronavirus (strain FIPV WSU-79/1146) (FCoV), UniProt Q98VG9). The experiment is described as follows: biochemical.
Experiment [9] concerns the target SARS-3CL^pro (Severe acute respiratory syndrome coronavirus (SARS-CoV), UniProt P0C6X7). It is filed as biochemical.
In experiment [10] the target is HKU1-3CL^pro (Human coronavirus HKU1 (isolate N1) (HCoV-HKU1), UniProt P0C6X2). The experiment is described as follows: biochemical.
Experiment [11] deals with HKU9-3CL^pro (Bat coronavirus HKU9 (BtCoV) (BtCoV/HKU9), UniProt P0C6W5). Format: biochemical.

Some results are limits rather than exact numbers.

What is called inhibition is how much of the control response was suppressed. Usually IC50 stands for the point on the concentration scale where inhibition reaches its midpoint. Read a low IC50 as inhibition by little substance.

Chain of PEDV-3CL^pro (P0C6Y4 2998-3299 limits assumed): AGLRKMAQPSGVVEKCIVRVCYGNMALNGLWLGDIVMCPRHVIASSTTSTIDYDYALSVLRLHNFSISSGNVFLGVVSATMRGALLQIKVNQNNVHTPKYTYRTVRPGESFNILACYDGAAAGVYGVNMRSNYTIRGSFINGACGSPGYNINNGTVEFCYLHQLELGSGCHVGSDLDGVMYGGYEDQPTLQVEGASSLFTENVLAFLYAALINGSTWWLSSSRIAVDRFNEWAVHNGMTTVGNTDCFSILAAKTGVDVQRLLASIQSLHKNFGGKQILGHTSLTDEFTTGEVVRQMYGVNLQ
Chain of OC43-3CL^pro (P0C6X6 3247-3549 limits assumed): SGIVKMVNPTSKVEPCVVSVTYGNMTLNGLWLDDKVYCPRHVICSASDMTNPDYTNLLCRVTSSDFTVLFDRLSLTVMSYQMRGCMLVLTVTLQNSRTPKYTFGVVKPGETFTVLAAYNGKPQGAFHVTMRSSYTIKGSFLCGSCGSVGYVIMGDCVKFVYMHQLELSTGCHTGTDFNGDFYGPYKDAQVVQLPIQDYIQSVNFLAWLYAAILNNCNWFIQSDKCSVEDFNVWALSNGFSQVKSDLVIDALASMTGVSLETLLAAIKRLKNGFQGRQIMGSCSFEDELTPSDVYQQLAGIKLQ
Chain of IBV-3CL^pro (P0C6Y1 2780-3086 limits assumed): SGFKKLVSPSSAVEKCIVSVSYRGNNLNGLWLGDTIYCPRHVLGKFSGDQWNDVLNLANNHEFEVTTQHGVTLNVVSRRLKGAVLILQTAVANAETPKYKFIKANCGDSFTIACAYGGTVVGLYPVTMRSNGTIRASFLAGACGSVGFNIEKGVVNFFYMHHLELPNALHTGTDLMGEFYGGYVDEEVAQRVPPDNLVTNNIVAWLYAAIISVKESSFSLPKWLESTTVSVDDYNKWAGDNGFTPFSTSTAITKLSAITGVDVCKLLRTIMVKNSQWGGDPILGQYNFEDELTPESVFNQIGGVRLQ
Chain of HKU5-3CL^pro (P0C6W4 3339-3644 limits assumed): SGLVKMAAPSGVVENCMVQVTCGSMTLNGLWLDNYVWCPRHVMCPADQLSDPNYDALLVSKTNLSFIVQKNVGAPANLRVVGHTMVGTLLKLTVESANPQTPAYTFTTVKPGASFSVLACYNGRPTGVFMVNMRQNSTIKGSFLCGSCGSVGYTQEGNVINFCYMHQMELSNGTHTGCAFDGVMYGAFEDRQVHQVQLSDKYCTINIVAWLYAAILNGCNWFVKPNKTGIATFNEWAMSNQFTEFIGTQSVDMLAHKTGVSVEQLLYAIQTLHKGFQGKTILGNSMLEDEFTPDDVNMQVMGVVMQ
Chain of FIPV-3CL^pro (Q98VG9 2904-3205 limits assumed): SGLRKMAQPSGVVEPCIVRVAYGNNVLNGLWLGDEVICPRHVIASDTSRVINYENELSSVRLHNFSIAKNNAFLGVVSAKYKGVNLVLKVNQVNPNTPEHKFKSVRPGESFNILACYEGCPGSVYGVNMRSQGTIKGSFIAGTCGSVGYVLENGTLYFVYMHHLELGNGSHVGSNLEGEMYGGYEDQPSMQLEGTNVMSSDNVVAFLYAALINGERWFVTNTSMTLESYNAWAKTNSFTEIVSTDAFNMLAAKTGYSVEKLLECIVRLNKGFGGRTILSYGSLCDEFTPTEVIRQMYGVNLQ
Chain of HKU4-3CL^pro (P0C6W3 3292-3597 limits assumed): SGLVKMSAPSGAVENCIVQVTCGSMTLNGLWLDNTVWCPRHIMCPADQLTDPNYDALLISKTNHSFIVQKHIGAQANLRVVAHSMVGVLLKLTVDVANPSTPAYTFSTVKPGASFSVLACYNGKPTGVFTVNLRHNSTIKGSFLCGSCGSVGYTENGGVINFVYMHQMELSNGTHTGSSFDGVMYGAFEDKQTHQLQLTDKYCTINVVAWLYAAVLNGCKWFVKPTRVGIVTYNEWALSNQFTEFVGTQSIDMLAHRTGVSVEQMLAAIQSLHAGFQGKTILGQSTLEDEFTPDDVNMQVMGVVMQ
Chain of NL63-3CL^pro (P0C6X5 2940-3242 limits assumed): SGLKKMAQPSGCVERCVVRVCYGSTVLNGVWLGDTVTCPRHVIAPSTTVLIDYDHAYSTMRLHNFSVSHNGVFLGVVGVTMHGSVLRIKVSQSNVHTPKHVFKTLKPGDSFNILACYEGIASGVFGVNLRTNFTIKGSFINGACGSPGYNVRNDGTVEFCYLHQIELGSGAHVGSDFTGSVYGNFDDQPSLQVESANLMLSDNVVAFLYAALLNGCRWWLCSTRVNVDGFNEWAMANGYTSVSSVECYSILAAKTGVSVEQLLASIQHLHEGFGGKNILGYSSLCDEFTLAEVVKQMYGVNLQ
Chain of HKU1-3CL^pro (P0C6X2 3335-3637 limits assumed): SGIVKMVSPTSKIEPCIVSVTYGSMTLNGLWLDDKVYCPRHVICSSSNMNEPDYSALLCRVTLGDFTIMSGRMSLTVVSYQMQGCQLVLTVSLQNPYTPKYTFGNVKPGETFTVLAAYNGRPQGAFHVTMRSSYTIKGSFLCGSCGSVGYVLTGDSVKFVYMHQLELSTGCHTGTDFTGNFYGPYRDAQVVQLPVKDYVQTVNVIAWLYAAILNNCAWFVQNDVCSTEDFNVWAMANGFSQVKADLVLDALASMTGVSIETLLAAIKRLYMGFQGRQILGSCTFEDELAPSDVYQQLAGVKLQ
Chain of HKU9-3CL^pro (P0C6W5 3104-3409 limits assumed): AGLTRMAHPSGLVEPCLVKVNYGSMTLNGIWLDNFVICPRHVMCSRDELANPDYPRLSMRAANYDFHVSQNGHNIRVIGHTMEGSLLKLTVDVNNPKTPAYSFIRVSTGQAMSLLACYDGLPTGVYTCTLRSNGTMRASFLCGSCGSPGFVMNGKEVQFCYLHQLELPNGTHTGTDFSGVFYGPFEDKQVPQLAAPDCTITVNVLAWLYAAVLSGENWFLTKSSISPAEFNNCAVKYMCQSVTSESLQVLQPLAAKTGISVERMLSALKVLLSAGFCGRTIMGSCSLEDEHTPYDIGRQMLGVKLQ

Turning to `CC(C)(C)NC(=O)C(c1ccsc1)N(C(=O)Cn1nnc2ccccc21)c1ccc(NC(=O)C2CC2)cc1` (centres unmarked) [Compound 2P, reference compound], in [1], the “Gini Coefficient” value was 0.29. Besides, the “Score (performance metric score)” value in [1] was 8.5. Also, the inhibition at 100 µM in experiment [2] (read-out: inhibition of NL63-3CL^pro), in [5] and in experiment [8] (read-out: inhibition of FIPV-3CL^pro) was at most 50% in each case. The IC50 is 3.5 ± 0.5 µM in experiment [3], 3.8 ± 0.3 µM in [4] and 24.4 ± 3.5 µM in [7]. For the same molecule, in [6], the “inhibition of γ-CoV IBV-3CL^pro” value was “no compound, including the parent compounds 1P, 2P, and 3P, was found to be capable of inhibiting”.
Regarding `CC(C)C(=O)Nc1ccc(N(C(=O)Cn2nnc3ccccc32)C(C(=O)NCc2ccccc2)c2cccc(F)c2)cc1` (centres unmarked) [Compound 1P, reference compound], the “Gini Coefficient” value in experiment [1] is 0.31. Also, the “Score (performance metric score)” value in experiment [1] is listed as 5.7. For the same molecule, the IC50 came out at 1.6 ± 0.2 µM in experiment [9], 1.2 ± 0.1 µM in experiment [3], 6.9 ± 0.9 µM in experiment [7] and 6.7 ± 0.7 µM in experiment [8]. The inhibition at 100 µM in experiment [10] (read-out: inhibition of HKU1-3CL^pro) and in [5] was at most 50% throughout. In experiment [6], the “inhibition of γ-CoV IBV-3CL^pro” value was “no compound, including the parent compounds 1P, 2P, and 3P, was found to be capable of inhibiting”.
Turning to `CC(C)Cc1ccc(N(C(=O)c2c[nH]cn2)C(C(=O)NC(C)(C)C)c2cccnc2)cc1` (centres unmarked) [Compound 38, N-(2-(tert-butylamino)-2-oxo-1-(pyridin-3-yl)ethyl)-N-(4-isobutylphenyl)-1H-imidazole-4-carboxamide], the “Gini Coefficient” value in experiment [1] amounted to 0.21. Also, the “Score (performance metric score)” value in experiment [1] stood at 4.5. The IC50 worked out at 7 ± 0.6 µM in [9]; 10.9 ± 0.9 µM in [3]; 7.7 ± 0.7 µM in [4]; 15.4 ± 1.5 µM in experiment [10]; 18 ± 3.3 µM in experiment [11]; 15.5 ± 1.8 µM in experiment [5]. Besides, the IC50 in experiment [7] is 24.4 ± 3.1 µM; in experiment [8], 61.1 ± 13.9 µM. The “inhibition of NL63-3CL^pro” value in [2] is “not tolerated”.
As to `CC(C)(C)NC(=O)C(c1cccnc1)N(C(=O)c1c[nH]cn1)c1ccc(C(C)(C)C)cc1` (centres unmarked) [Compound 3P, reference compound], in experiment [1], the “Gini Coefficient” value came to 0.13 and the “Score (performance metric score)” value was 2.7. Also, the “inhibition of γ-CoV IBV-3CL^pro” value in experiment [6] was “no compound, including the parent compounds 1P, 2P, and 3P, was found to be capable of inhibiting”.

Source of the values: patent US9975885B2, “Broad-spectrum non-covalent coronavirus protease inhibitors” (priority 2016, dated 2018).
